The assay has as its target SARS-CoV-2 3CLpro (Severe acute respiratory syndrome coronavirus 2, UniProt P0DTD1). In words: biochemical. Type of assay: biochemical. More on the design: Replicate_1 / Replicate_2 / mean / mean (LOPAC_screen_w_protease): unit not given here. The conditions noted are these: for inhibition at 5 µM: 4 h.
The mark [1] stands for this setting: LOPAC1280 primary screen with protease, 5 µM compound, replicate 1, read-out: Replicate_1 (LOPAC_screen_w_protease).
Where [2] appears, read: LOPAC1280 primary screen with protease, 5 µM compound, replicate 2, read-out: Replicate_2 (LOPAC_screen_w_protease).
Where [3] appears, read: LOPAC1280 primary screen with protease, 5 µM compound, mean of two replicates.
Where [4] appears, read: sheet LOPAC_screen_w_protease, primary screen with protease, compound at 5 µM, mean of two replicates.
The mark [5] stands for this setting: sheet LOPAC_screen_w_protease, primary screen with protease, compound at 5 µM, replicate 2.
Where [6] appears, read: sheet LOPAC_screen_w_protease, primary screen with protease, mean of two replicates.
Setting [7] is: sheet LOPAC_screen_w_protease, primary screen with protease, replicate 1.
The mark [8] stands for this setting: sheet LOPAC_screen_w_protease, primary screen with protease, replicate 2.
Where [9] appears, read: sheet LOPAC_screen_w_protease, primary screen at 5 µM, mean of two replicates.
[10] abbreviates: sheet LOPAC_screen_w_protease, primary screen at 5 µM, replicate 1.
The mark [11] stands for this setting: sheet LOPAC_screen_w_protease, primary screen at 5 µM, replicate 2.
[12] abbreviates: read-out: Replicate_1 (LOPAC_screen_w_protease).
[13] abbreviates: read-out: Replicate_2 (LOPAC_screen_w_protease).
Where [14] appears, read: sheet LOPAC_screen_w_protease, primary screen with protease, 5 µM, mean of two replicates, read-out: mean.
Where [15] appears, read: sheet LOPAC_screen_w_protease, primary screen with protease, 5 µM, replicate 1, read-out: Replicate_1.
Setting [16] is: sheet LOPAC_screen_w_protease, primary screen with protease, 5 µM, replicate 2, read-out: Replicate_2.
Where [17] appears, read: LOPAC1280 primary screen with protease, 5 µM compound, replicate 1.
Setting [18] is: LOPAC1280 primary screen with protease, 5 µM compound, replicate 2.
Where [19] appears, read: sheet LOPAC_screen_w_protease, LOPAC1280 primary screen with protease, 5 µM compound, mean of the two replicates, read-out: mean.
The mark [20] stands for this setting: sheet LOPAC_screen_w_protease, LOPAC1280 primary screen with protease, 5 µM compound, replicate 1, read-out: Replicate_1.
The mark [21] stands for this setting: sheet LOPAC_screen_w_protease, LOPAC1280 primary screen with protease, 5 µM compound, replicate 2, read-out: Replicate_2.
Setting [22] is: sheet LOPAC_screen_w_protease, LOPAC1280 primary screen at 5 µM, with protease, mean of the two replicates.
The mark [23] stands for this setting: sheet LOPAC_screen_w_protease, LOPAC1280 primary screen at 5 µM, with protease, replicate 1.
The mark [24] stands for this setting: sheet LOPAC_screen_w_protease, LOPAC1280 primary screen at 5 µM, with protease, replicate 2.

Structures can show the parent of a compound that is named as a salt. Where two headings read alike, the source gives them in different places.

As to `CC(C)[C@@H]1NC(=O)[C@H](CCCCN)NC(=O)[C@@H](Cc2c[nH]c3ccccc23)NC(=O)[C@H](Cc2ccc(O)cc2)NC(=O)[C@H](C)N(C)C(=O)[C@H](Cc2ccccc2)NC1=O` [Seglitide], the inhibition at 5 µM by setting is: under setting [1], 3.58%; under setting [2], -0.291%. The “mean (LOPAC_screen_w_protease)” value under setting [3] amounted to 1.643.
Take `COc1cc([C@@H]2c3cc4c(cc3[C@H](O)[C@H]3COC(=O)[C@H]23)OCO4)cc(OC)c1OC` [Podophyllotoxin]: the inhibition at 5 µM amounted to 3.42% (read-out: Replicate_1), 4.17% (read-out: Replicate_2) and 3.8% (read-out: mean).
For `COc1ccc(C(=O)NCc2cccnc2)cc1C(=O)NCc1cccnc1` [Picotamide], the inhibition at 5 µM (sheet LOPAC_screen_w_protease, LOPAC1280 primary screen at 5 µM, with protease, mean of the two replicates, read-out: mean) was 0.551%; the inhibition at 5 µM (sheet LOPAC_screen_w_protease, LOPAC1280 primary screen at 5 µM, with protease, replicate 1, read-out: Replicate_1) stood at 1.7%; the inhibition at 5 µM (sheet LOPAC_screen_w_protease, LOPAC1280 primary screen at 5 µM, with protease, replicate 2, read-out: Replicate_2) is -0.597%.
Compound `N[C@H](C(=O)O)[C@H]1C[C@@H]1C(=O)O` displayed a Replicate_1 of 1.266, a Replicate_2 of 1.079 and a mean of 1.172.
Under setting [4], `C[C@@]1(C2CCCC2)Cc2cc(OCC(=O)O)c(Cl)c(Cl)c2C1=O` [R(+)-IAA-94] displayed a mean of 3.0784. This compound returned a Replicate_2 under setting [5] of 3.637.
Turning to `CN(C)C(=O)C(CCN1CCC(O)(c2ccc(Cl)cc2)CC1)(c1ccccc1)c1ccccc1` [Loperamide hydrochloride], the inhibition at 5 µM is, setting by setting: (sheet LOPAC_screen_w_protease, primary screen with protease, mean of two replicates, read-out: mean) 2.22%; (sheet LOPAC_screen_w_protease, primary screen with protease, replicate 1, read-out: Replicate_1) 4.2%; (sheet LOPAC_screen_w_protease, primary screen with protease, replicate 2, read-out: Replicate_2) 0.237%.
As to `CCCCN1CCC(COC(=O)c2cc(Cl)c(N)c3c2OCCO3)CC1.Cl` [SB 204070 hydrochloride], the mean under setting [6] amounted to 2.545. For the same compound, the Replicate_1 under setting [7] was 1.507. Further, the Replicate_2 under setting [8] amounted to 3.5833.
On to `O=C(O)CCCCCCC1C(=O)NC(=O)N1CCC(O)C1CCCCC1` (stereo not drawn) [BW 245C], for which the “Replicate_1 (LOPAC_screen_w_protease)” value is on record as 2.361, the “Replicate_2 (LOPAC_screen_w_protease)” value was 0.3585 and the “mean (LOPAC_screen_w_protease)” value is on record as 1.3595.
With `Cc1ccc(S(=O)(=O)N[C@@H](Cc2ccccc2)C(=O)CCl)cc1`, under setting [9], the “mean (LOPAC screen with protease)” value amounted to 61.4515. In addition, the “Replicate_1 (LOPAC screen with protease)” value under setting [10] stood at 61.5523. Besides, the “Replicate_2 (LOPAC screen with protease)” value under setting [11] was determined as 61.3507.
On to `O=c1c(-c2ccc(O)cc2)coc2cc(O)cc(O)c12` [Genistein], for which the inhibition at 5 µM by setting is: under setting [12], 2.15%; under setting [13], 0.656%.
`N=C(N)NC(=O)c1nc(Cl)c(N)nc1N` [Amiloride hydrochloride]: the inhibition at 5 µM was 0.179% under setting [14], -0.488% under setting [15] and 0.846% under setting [16].
In the case of `CCCCCCCCCCCCCCCCCCOCC(COP(=O)([O-])OCC[N+](C)(C)C)OC` (stereo not drawn) [ET-18-OCH3], the “mean (LOPAC_screen_w_protease)” value under setting [3] came to 1.443. Further, the “Replicate_1 (LOPAC_screen_w_protease)” value under setting [17] worked out at 1.735. Further, under setting [18], the “Replicate_2 (LOPAC_screen_w_protease)” value is listed as 1.151.
`NC(N)=NCc1cccc(I)c1.NC(N)=NCc1cccc(I)c1.O=S(=O)(O)O` [m-Iodobenzylguanidine hemisulfate] displayed a mean under setting [6] of 2.496. Under setting [7], this compound yielded a Replicate_1 of 1.063. Further, under setting [8], the Replicate_2 was found to be 3.929.
On to `C[N+](C)(C)CC#CCN1CCCC1=O` [Oxotremorine methiodide], for which the inhibition at 5 µM stood at 7.27% (sheet LOPAC_screen_w_protease, primary screen at 5 µM, mean of two replicates, read-out: mean (LOPAC screen with protease)); 7.16% (sheet LOPAC_screen_w_protease, primary screen at 5 µM, replicate 1, read-out: Replicate_1 (LOPAC screen with protease)); 7.38% (sheet LOPAC_screen_w_protease, primary screen at 5 µM, replicate 2, read-out: Replicate_2 (LOPAC screen with protease)).
In the case of `CC(N)Cc1c[nH]c2ccc(O)cc12.O=C(O)/C=C\C(=O)O` (stereo not drawn) [alpha-Methyl-5-hydroxytryptamine maleate], where the note is “sheet LOPAC_screen_w_protease, LOPAC1280 primary screen with protease, 5 µM compound, mean of the two replicates”, the mean is given as 6.214. Further, for the setting “sheet LOPAC_screen_w_protease, LOPAC1280 primary screen with protease, 5 µM compound, replicate 1”, the Replicate_1 is 5.086. In addition, the Replicate_2 (sheet LOPAC_screen_w_protease, LOPAC1280 primary screen with protease, 5 µM compound, replicate 2) is 7.342.
As to `CNCC(O)c1ccc(O)c(O)c1.Cl` (racemic) [(±)-Epinephrine hydrochloride], the Replicate_1 worked out at 3.211, the Replicate_2 is 1.4095 and the mean is 2.31.
In the case of `COC(=O)[C@H]1[C@H]2C[C@@H]3c4[nH]c5cc(OC)ccc5c4CCN3C[C@H]2C[C@@H](OC(=O)c2cc(OC)c(OC)c(OC)c2)[C@@H]1OC` [Reserpine], the inhibition at 5 µM was 2.93% under setting [12] and 0.694% under setting [13].
As to `Cn1cnc2c(NCc3ccccc3)nc(NCCO)nc21` [Olomoucine], the inhibition at 5 µM by setting is: under setting [19], 4.92%; under setting [20], 3.02%; under setting [21], 6.83%.
As for `Cl.O=C(Cc1ccc(Cl)c(Cl)c1)N1CCCCC1CN1CCCC1` (stereo not drawn) [BRL 52537 hydrochloride], under setting [3], the “mean (LOPAC_screen_w_protease)” value is 1.672. Besides, the “Replicate_1 (LOPAC_screen_w_protease)” value under setting [17] was 2.192. For the same compound, under setting [18], the “Replicate_2 (LOPAC_screen_w_protease)” value turned out to be 1.152.
Turning to `O=C(O)/C=C\C(=O)O.O=C(O)/C=C\C(=O)O.c1ccc2nc(N3CCNCC3)ccc2c1` [Quipazine dimaleate], the mean under setting [22] is 0.5004. Under setting [23], this compound gave a Replicate_1 of 0.6596. Moreover, under setting [24], the Replicate_2 turned out to be 0.3411.
`O=P1(N(CCCl)CCCl)NCCCO1` (stereo not drawn) [Cyclophosphamide monohydrate]: the inhibition at 5 µM is, setting by setting: (read-out: Replicate_1) -1.54%; (read-out: Replicate_2) 3.01%; (read-out: mean) 0.736%.
Regarding `C=CCN1CC[C@]23CCCC[C@H]2[C@H]1Cc1ccc(O)cc13` [Levallorphan tartrate], the inhibition at 5 µM under setting [19] is 4.19%, the inhibition at 5 µM under setting [20] came to 5.56% and the inhibition at 5 µM under setting [21] turned out to be 2.81%.
As for `CC1=NN=C(c2ccc(N)cc2)c2cc3c(cc2C1)OCO3.Cl` [GYKI 52466 hydrochloride], under setting [22], the mean is recorded as 0.5948. The compound further returned a Replicate_1 under setting [23] of 3.75. The compound also gave a Replicate_2 under setting [24] of -2.56.
For `COC(=O)[C@@H](N)Cc1ccc(O)c(O)c1.Cl`, the mean (sheet LOPAC_screen_w_protease, primary screen of LOPAC1280 at 5 µM with protease, mean of the two replicates) came out at 3.737. The compound further had a Replicate_1 (sheet LOPAC_screen_w_protease, primary screen of LOPAC1280 at 5 µM with protease, replicate 1) of 4.528. For the setting “sheet LOPAC_screen_w_protease, primary screen of LOPAC1280 at 5 µM with protease, replicate 2”, this compound came in with a Replicate_2 of 2.946.
`COc1ccccc1N1CCN(CCN2C(=O)CC3(CCCC3)CC2=O)CC1.Cl.Cl` [BMY 7378 dihydrochloride] displayed a mean under setting [4] of 2.822. The compound also yielded a Replicate_1 (sheet LOPAC_screen_w_protease, primary screen with protease, compound at 5 µM, replicate 1) of 2.1144. This compound came in with a Replicate_2 under setting [5] of 3.53.
Take `CN1CC[C@@]2(C)c3cc(O)ccc3N(C)[C@@H]12.O=C(O)/C=C/C(=O)O` [(-)-Eseroline fumarate]: the “mean (LOPAC screen with protease)” value under setting [9] was found to be 88.3904. Also, the “Replicate_1 (LOPAC screen with protease)” value under setting [10] is on record as 89.8661. For the same compound, the “Replicate_2 (LOPAC screen with protease)” value under setting [11] is listed as 86.9147.
For `CC(C[N+](C)(C)C)OC(N)=O` (stereo not drawn) [Bethanechol chloride], the inhibition at 5 µM reads like this: under setting [1], 0.465%; under setting [2], 2.25%. Besides, the “mean (LOPAC_screen_w_protease)” value under setting [3] is 1.356.
Take `Cc1ccccc1N1CCN(S(=O)(=O)CC23CCC(CC2NC(=O)C(N)CCS(C)(=O)=O)C3(C)C)CC1.Cl` [L-368,899]: the mean under setting [6] is 2.3895. Further, the Replicate_1 under setting [7] was 2.509. For the same compound, the Replicate_2 under setting [8] is given as 2.27.
Regarding `CCCN1C[C@H](CSC)C[C@@H]2c3cccc4[nH]cc(c34)C[C@H]21` [Pergolide methanesulfonate], the inhibition at 5 µM runs as follows: under setting [14], 0.241%; under setting [15], 0.0285%; under setting [16], 0.454%.

These data come from paper PMC7587356, “High-Throughput Screening for Inhibitors of the SARS-CoV-2 Protease Using a FRET-Biosensor” (Molecules, 2020).
